Data from PubChem BioAssay (NCI).
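Values below derive from 48-hour exposures of cells grown in 96-well plates, with endpoints linearly interpolated between the two concentrations bracketing the appropriate inhibition level. TGI: concentration producing complete growth inhibition.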

Columns and labels:
Assay in all cases: DTP human tumour cell line panel, 48 h
NCI-H522 lung = system: NCI-H522 lung
COLO 205 colon = system: COLO 205 colon
RXF 393 renal = system: RXF 393 renal
HOP-92 NSCLC = system: HOP-92 NSCLC
SK-OV-3 ovarian = system: SK-OV-3 ovarian
M14 melanoma = system: M14 melanoma
SK-MEL-2 melanoma = system: SK-MEL-2 melanoma
U251 CNS = system: U251 CNS
HL-60(TB) leukemia = system: HL-60(TB) leukemia
MALME-3M melanoma = system: MALME-3M melanoma
MDA-MB-231 breast = system: MDA-MB-231 breast
HCT-15 colon = system: HCT-15 colon
BT-549 breast = system: BT-549 breast
HT29 colon = system: HT29 colon
PC-3 prostate = system: PC-3 prostate
SW-620 colon = system: SW-620 colon
NCI/ADR-RES ovarian = system: NCI/ADR-RES ovarian
EKVX NSCLC = system: EKVX NSCLC
LOX IMVI melanoma = system: LOX IMVI melanoma
SF-268 CNS = system: SF-268 CNS
KM12 colon = system: KM12 colon
MDA-MB-435 = system: MDA-MB-435
IGROV1 ovarian = system: IGROV1 ovarian
CCRF-CEM leukemia = system: CCRF-CEM leukemia
SK-MEL-28 melanoma = system: SK-MEL-28 melanoma
ACHN renal = system: ACHN renal
MCF7 breast = system: MCF7 breast
SR leukemia = system: SR leukemia
DU-145 prostate = system: DU-145 prostate
OVCAR-3 ovarian = system: OVCAR-3 ovarian
NCI-H226 lung = system: NCI-H226 lung
SN12C renal = system: SN12C renal
NCI-H460 lung = system: NCI-H460 lung
CAKI-1 renal = system: CAKI-1 renal
HOP-62 NSCLC = system: HOP-62 NSCLC
UACC-257 melanoma = system: UACC-257 melanoma
UACC-62 melanoma = system: UACC-62 melanoma
SNB-75 CNS = system: SNB-75 CNS
OVCAR-8 ovarian = system: OVCAR-8 ovarian
A549 NSCLC = system: A549 NSCLC
HS 578T breast = system: HS 578T breast
MDA-N = system: MDA-N
RPMI-8226 leukemia = system: RPMI-8226 leukemia
OVCAR-4 ovarian = system: OVCAR-4 ovarian
SK-MEL-5 melanoma = system: SK-MEL-5 melanoma
SF-539 CNS = system: SF-539 CNS
SNB-19 CNS = system: SNB-19 CNS
HCC-2998 colon = system: HCC-2998 colon
HCT-116 colon = system: HCT-116 colon
NCI-H23 lung = system: NCI-H23 lung
OVCAR-5 ovarian = system: OVCAR-5 ovarian
A498 renal = system: A498 renal
T-47D breast = system: T-47D breast
786-0 renal = system: 786-0 renal
MOLT-4 leukemia = system: MOLT-4 leukemia
K-562 leukemia = system: K-562 leukemia
UO-31 renal = system: UO-31 renal
TK-10 renal = system: TK-10 renal
SF-295 CNS = system: SF-295 CNS

Measured: TGI

CCC(=O)O[C@H]1CC[C@H]2[C@@H]3CCC4=C/C(=N/OC(=O)c5cccc6cc7ccccc7nc56)CC[C@]4(C)[C@H]3CC[C@]12C
31.5 µM: SK-MEL-5 melanoma
67.6 µM: T-47D breast
not listed: UO-31 renal | TK-10 renal | SF-295 CNS
> 100 µM: all other assays above

[N-]=[N+]=CC(=O)OC1Cc2ccccc2C1
> 84.2 µM: DU-145 prostate
> 35.3 µM: CAKI-1 renal
81.9 µM: ACHN renal
35.8 µM: UO-31 renal
> 31.6 µM: CCRF-CEM leukemia
> 100 µM: all other assays above
